Reference: patent US5563130A, “Methods for inhibiting angiogenesis, proliferation of endothelial or tumor cells and tumor growth” (American Cyanamid Company, priority 1994, dated 1996)
Structures can show the parent of a compound that is named as a salt.

Tests used:
Assay type in all cases: cell-based
[1] = system: SW620; test: Antiproliferative activity in human colon tumor cell line SW620; details: PROTOCOL 1 and PROTOCOL 2
Description: (§1) PROTOCOL 1, 2, and 3 are described in greater detail hereinbelow. In general, according to PROTOCOLS 1 and 2, the target ABAE and/or Human Tumor cells are exposed to the compound of Formula I for 48 hours. PROTOCOL 3 exposes ABAE cell to the compound for 4 days. A detailed description of the protocol is as follows:
(§2) Antiproliferative Activity in Human Tumor and Adult Bovine Aortic Endothelial (ABAE) Cell Lines
(§3) The antiproliferative activity of the compounds of Formula I of the present invention is evaluated in a panel comprised of human tumor cell lines and an adult bovine aortic endothelial cell line (ABAE). The human tumor cell lines are from:
(§4) 2) Colon tumors: MIP, CaCo2, and SW620.
(§5) All cell lines are maintained in log phase in RPMI 1640 media, supplemented with 5% fetal calf serum, penicillin/streptomycin and 2 mM L-glutamine. Cultures are renewed after 20 passages with cells from a fresh stock of batch-frozen early passage cells. Cell lines are routinely checked for mycoplasma contamination (Genprobe). In a laminar flow hood, cells (1-5×10^4) are plated into 96-well microtiter plates in a volume of 0.1 ml/well with a bulk microtiter dispenser (Denley). […] At this concentration, dimethylsulfoxide has no effect on cell growth. Compounds are added using a Tomtec dispenser which simultaneously dispenses from one 96-well plate, containing the drug dilutions, to the plates containing the cells. After two days of continuous drug exposure, 50% cold trichloroacetic acid (TCA) is added to 10% final concentration to fix the cells, and after 60 minutes at 4° C., the TCA is aspirated and the plates are washed 5 times with deionized water using a microtiter plate washer. The number of cells on the plate are quantitated using a protein dye-binding assay (Monks et al., 1991). A 0.4% solution of the dye, sulforhodamine B, in glacial acetic acid is added to the plates, and the plates are washed 5 times with 1% glacial acetic acid using the automatic plate washed. The bound stain is solubilized with 0.1 ml of 10 mM Tris base. The optical densities are read from an automatic spectrophotometric plate reader (Dynatech) directly to a main frame computer (VAX 8600).
(§6) Positive controls, that include standard chemotherapeutic drugs (i.e., adriamycin, cisplatin, etc.), are included in every experiment.
(§7) Background optical density measurements (complete media-cells, and complete media+drug-cells) are automatically subtracted from the appropriate control and test wells. Mean values and standard errors are determined from duplicate wells. A measure is also made of the optical density at time when the drugs are added. The number of cells after treatment (P), as % of control, is calculated for every concentration of drug, as follows: [formula] wherein: T is optical density measurement for treated cells after 48 hours;
(§8) C is optical density measurement for untreated cells after 48 hours;
(§9) Co is optical density measurement for cells at the time of drug addition.
(§10) IC50 of growth inhibition is calculated from the sets of P values using the RS-1 data package (BBN Software).
(§11) The antiproliferative activity of the compounds of Formula I is evaluated in a panel comprised of human tumor cell lines and an adult bovine aortic endothelial cell line (ABAE) as listed in PROTOCOL 1. This assay is a modification of PROTOCOL 1. The modifications include:
(§12) 1) each concentration for each compound is tested in a single well;
(§13) 2) compounds are tested at 20, 4, 0.8, 0.16 microgram/ml and additionally in some experiments at 100 and 0.32 microgram/ml;
(§14) 3) samples are pipetted into a 96-well plate for each of the cell lines by a Beckman Biomek 1000 SL robot;
(§15) 4) after fixing with TCA each well is washed with 0.35 ml distilled water twice, not five times;
(§16) 5) after staining with sulforhodamine B each well is washed 3 times, not five times; […]

[2] = system: A2780/DDP; test: Antiproliferative activity in human ovarian tumor cell line A2780/DDP; details: PROTOCOL 1 and PROTOCOL 2
Description: as §1, §2, §3, §5, §6, §7, §8, §9, §10, §11, §12, §13, §14, §15, §16

[3] = system: MIP; test: Antiproliferative activity in human colon tumor cell line MIP; details: PROTOCOL 1 and PROTOCOL 2
Description: as §1, §2, §3, §4, §5, §6, §7, §8, §9, §10, §11, §12, §13, §14, §15, §16

[4] = system: Human Tumor Cell lines; test: Antiproliferative activity in panel of human tumor cell lines; details: average over the tested human tumor cell lines
Description: as §1, §2, §3, §4, §5, §6, §7, §8, §9, §10, §11, §12, §13, §14, §15, §16

[5] = system: A2780S; test: Antiproliferative activity in human ovarian tumor cell line A2780S; details: PROTOCOL 1 and PROTOCOL 2
Description: as §1, §2, §3, §5, §6, §7, §8, §9, §10, §11, §12, §13, §14, §15, §16

[6] = system: HTB 16; test: Antiproliferative activity in human tumor cell line HTB 16; details: ovarian tumor line; PROTOCOL 1 and PROTOCOL 2
Description: as §1, §2, §3, §5, §6, §7, §8, §9, §10, §11, §12, §13, §14, §15, §16

[7] = system: Adult Bovine Aortic Endothelial (ABAE) cell line; test: Antiproliferative activity in ABAE cells, PROTOCOL 1 (48 h, SRB)
Description: PROTOCOL 1, 2, and 3 are described in greater detail hereinbelow. In general, according to PROTOCOLS 1 and 2, the target ABAE and/or Human Tumor cells are exposed to the compound of Formula I for 48 hours. PROTOCOL 3 exposes ABAE cell to the compound for 4 days. A detailed description of the protocol is as follows: Antiproliferative Activity in Human Tumor and Adult Bovine Aortic Endothelial (ABAE) Cell Lines The antiproliferative activity of the compounds of Formula I of the present invention is evaluated in a panel comprised of human tumor cell lines and an adult bovine aortic endothelial cell line (ABAE). […] The number of cells on the plate are quantitated using a protein dye-binding assay (Monks et al., 1991). […] The optical densities are read from an automatic spectrophotometric plate reader (Dynatech) directly to a main frame computer (VAX 8600). […] Mean values and standard errors are determined from duplicate wells. […] The number of cells after treatment (P), as % of control, is calculated for every concentration of drug, as follows: [formula] wherein: T is optical density measurement for treated cells after 48 hours; C is optical density measurement for untreated cells after 48 hours; Co is optical density measurement for cells at the time of drug addition. IC50 of growth inhibition is calculated from the sets of P values using the RS-1 data package (BBN Software). […]

Row | Compound | SW620 IC50 [1] [µg/mL] | A2780/DDP IC50 [2] [µg/mL] | MIP IC50 [3] [µg/mL] | AVERAGE IC50 FOR TUMOR CELL LINES [4] [µg/mL] | A2780S IC50 [5] [µg/mL] | HTB 16 IC50 [6] [µg/mL] | IC50 PROTOCOL 1 [7] [µg/mL]
1 | CN(C)[C@@H]1C(O)=C(C(N)=O)C(=O)[C@@]2(O)C(O)=C3C(=O)c4c(ccc(NC(=O)CN5CCCCC5)c4O)CC3CC12 (stereo partly drawn) [Example 3, [7S-(7alpha,10aalpha)]-N-9-(Aminocarbonyl)-7-(dimethylamino)-5,5a,6,6a,7,10,10a,12-octahydro-1,8,10a,11-tetrahydroxy-10,12-dioxo-1-piperidineacetamidedihydrochloride] | 2.8 | 2.7 | 3.0 | 2.7 | 2.5 | 2.3 | 
2 | CCCNCC(=O)Nc1ccc2c(c1O)C(=O)C1=C(O)[C@]3(O)C(=O)C(C(N)=O)=C(O)[C@@H](N(C)C)C3CC1C2.Cl.Cl (stereo partly shown) [Example 4] | 1.3 | 3.1 | 3.4 | 2.85 | 3.2 | 3.2 | 5.2
3 | CN(C)[C@@H]1C(O)=C(C(N)=O)C(=O)[C@@]2(O)C(O)=C3C(=O)c4c(ccc(NC(=O)CN5CCCC5)c4O)CC3CC12.Cl.Cl (stereo partly shown) [Example 5] | 2.8 | 2.7 | 3.0 | 2.7 | 2.5 | 2.3 | 
4 | CN(C)[C@@H]1C(O)=C(C(N)=O)C(=O)[C@@]2(O)C(O)=C3C(=O)c4c(ccc(NC(=O)CNCC5CC5)c4O)CC3CC12.Cl.Cl (stereo partly drawn) [Example 7, [4S-(4alpha,12aalpha)]-9-[[[(Cyclopropylmethyl)amino)acetyl]amino]-4-(dimethylamino)-1,4,4a,5,5a,6,11,12a-octahydro-3,10,12,12a-tetrahydroxy-1,11-dioxo-2-naphthacenecarboxamide dihydrochloride] | 3.9 | 3.9 | 6.3 | 4.5 | 4.9 | 3.3 | 
5 | CN(C)CC(=O)Nc1ccc2c(c1O)C(=O)C1=C(O)[C@]3(O)C(=O)C(C(N)=O)=C(O)[C@@H](N(C)C)C3CC1C2.Cl.Cl (stereo partly drawn) [Example 8, [4S-(4alpha,121aalpha)]-9-[[(Dimethylamino)acetyl]-amino]-4-(dimethylamino)-1,4,4a,5,5a,6,11,12a-octahydro-3,10,12,12a-tetrahydroxy-1,11-dioxo-2-naphthacenecarboxamide dihydrochloride] | 5.0 | 5.8 | 6.0 | 5.1 | 4.8 | 4.1 | 
6 | CC(C)CNCC(=O)Nc1ccc2c(c1O)C(=O)C1=C(O)[C@]3(O)C(=O)C(C(N)=O)=C(O)[C@@H](N(C)C)C3CC1C2.Cl.Cl (stereo partly drawn) [Example 9, [b 4S-(4alpha,12aalpha)]-4-(Dimethylamino)-1,4,4a,5,5a,-6,11,12a-octahydro-3,10,12,12a-tetrahydroxy-9-[[[(2-methylpropyl)amino]acetyl]amino]-1,11-dioxo-2-naphthacenecarboxamide dihydrochloride] | 5.7 | 7.7 | 5.75 | 5.5 | 3.5 | 5.0 | 
